The experiment concerns the target T1, JAK1 (Homo sapiens, UniProt P23458).
T1 construct: purchased Thermo Fisher Scientific
Nature of the experiment: Z'-LYTE JAK1 kinase screen (Thermo Fisher Scientific). Format: biochemical. The note with it: 1% DMSO, ATP at Km apparent; for % Inhibition 1000 nm: test compound 1000 nm (so in the source). As for the experimental part:
The example compounds were screened for Jak1 activity at Thermo Fisher Scientific, using their Z′-Lyte™ protocol, as described below. Selectivity screening against other kinases can be performed following similar procedures. Z′-LYTE Assay Conditions: The Test Compounds are screened in 1% DMSO (final) in the well. Three screening concentrations (10, 100, and 1000 nM) of test compounds were used. Peptide/Kinase Mixtures: All Peptide/Kinase Mixtures are diluted to a 2× working concentration in the appropriate Kinase Buffer (For JAK1, the 2×JAK1/Tyr 06 mixture is prepared in 50 mM HEPES pH 6.5, 0.01% BRIJ-35, 10 mM MgCl2, 1 mM EGTA, 0.02% NaN3. The final 10 μL Kinase Reaction consists of 21.2-91.5 ng JAK1 and 2 μM Tyr 06 in 50 mM HEPES pH 7.0, 0.01% BRIJ-35, 10 mM MgCl2, 1 mM EGTA, 0.01% NaN3. After the 1 hour Kinase Reaction incubation, 5 μL of a 1:128 dilution of Development Reagent A is added). ATP Solution: All ATP Solutions are diluted to a 4× working concentration in Kinase Buffer (50 mM HEPES pH 7.5, 0.01% BRIJ-35, 10 mM MgCl2, 1 mM EGTA). ATP: Km apparent is previously determined using a Z′-LYTE assay. 10× Novel PKC Lipid Mix: 2 mg/ml Phosphatidyl Serine, 0.2 mg/ml DAG in 20 mM HEPES, pH 7.4, 0.3% CHAPS. For 5 mL 10× Novel PKC Lipid Mix: • 1. Add 10 mgs Phosphatidyl Serine (Avanti Polar Lipids Part #8400032C or 840039C) and 1 mg DAG (Avanti Polar Lipids Part #800811C) to a glass tube. • 2. Remove the chloroform from lipid mixture by evaporating to a clear, thin film under a stream of nitrogen. Continuous rotation of the tube, at an angle to ensure maximum surface area of the lipid solution, will promote the thinnest film. • 3. Add 5 mLs resuspension buffer, 20 mM HEPES, 0.3% CHAPS, pH 7.4, to the dried lipid mix • 4. Heat gently to 50-60° C. for 1-2 minutes and vortex in short intervals until the lipids are dissolved to a clear or slightly hazy solution. The lipids are typically in solution after 2-3 heat/vortex cycles. • 5. Cool to room temperature, aliquot into single use volumes and store at −20° C. Assay Protocol Bar-coded Corning, low volume NBS, black 384-well plate (Corning Cat. #4514) • 1. 100 nL—100× Test Compound in 100% DMSO • 2. 2.4 μL—Kinase buffer • 3. 5 μL—2× Peptide/Kinase Mixture • 4. 2.5 μL—4×ATP Solution • 5. 30-second plate shake • 6. 60-minute Kinase Reaction incubation at room temperature • 7. 5 μL—Development Reagent Solution • 8. 30-second plate shake • 9. 60-minute Development Reaction incubation at room temperature • 10. Read on fluorescence plate reader and analyze the data.

Structures are written as SMILES.

T1 sequence (P23458 whole entry): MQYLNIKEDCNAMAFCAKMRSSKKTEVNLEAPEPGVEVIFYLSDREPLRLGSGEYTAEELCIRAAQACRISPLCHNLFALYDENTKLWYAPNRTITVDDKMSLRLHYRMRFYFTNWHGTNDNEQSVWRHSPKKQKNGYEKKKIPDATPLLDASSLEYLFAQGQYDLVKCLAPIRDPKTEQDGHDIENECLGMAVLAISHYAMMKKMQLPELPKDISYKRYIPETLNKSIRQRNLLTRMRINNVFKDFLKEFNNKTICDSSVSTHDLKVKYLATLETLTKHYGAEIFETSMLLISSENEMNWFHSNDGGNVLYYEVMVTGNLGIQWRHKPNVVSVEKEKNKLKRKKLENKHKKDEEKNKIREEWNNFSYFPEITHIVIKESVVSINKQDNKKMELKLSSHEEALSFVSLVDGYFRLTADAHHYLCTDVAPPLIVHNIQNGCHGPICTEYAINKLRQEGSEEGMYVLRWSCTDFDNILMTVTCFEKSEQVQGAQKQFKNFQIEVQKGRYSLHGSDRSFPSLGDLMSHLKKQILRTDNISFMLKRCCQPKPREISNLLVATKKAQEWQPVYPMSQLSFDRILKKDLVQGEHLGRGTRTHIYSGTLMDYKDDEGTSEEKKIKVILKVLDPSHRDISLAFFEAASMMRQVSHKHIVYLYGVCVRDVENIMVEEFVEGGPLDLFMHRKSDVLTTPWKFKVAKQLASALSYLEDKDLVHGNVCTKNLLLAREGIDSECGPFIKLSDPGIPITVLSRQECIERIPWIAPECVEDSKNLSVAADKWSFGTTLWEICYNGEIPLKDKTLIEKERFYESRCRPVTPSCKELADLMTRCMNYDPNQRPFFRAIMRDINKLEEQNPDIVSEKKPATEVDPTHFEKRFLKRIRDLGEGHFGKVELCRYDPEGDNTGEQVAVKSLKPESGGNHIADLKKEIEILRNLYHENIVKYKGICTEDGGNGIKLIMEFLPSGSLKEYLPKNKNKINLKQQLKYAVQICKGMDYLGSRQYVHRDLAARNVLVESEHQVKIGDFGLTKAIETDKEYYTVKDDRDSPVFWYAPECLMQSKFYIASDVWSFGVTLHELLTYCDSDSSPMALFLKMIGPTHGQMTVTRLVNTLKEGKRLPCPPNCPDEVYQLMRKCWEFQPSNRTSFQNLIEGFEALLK

Broadly, the inhibition is the percentage by which the read-out fell short of the control. Consider `CN(c1ncnc2[nH]ccc12)C1CC2(CC(NS(=O)(=O)c3ccccc3)C2)C1` (stereo not drawn) [Compound 11, N-[2-[methyl(7H-pyrrolo[2,3-d]pyrimidin-4-yl)amino]spiro[3.3]heptan-6-yl]benzenesulfonamide], for which the “% Inhibition 1000 nm” value was determined as 95%. Moreover, the inhibition at 0.01 µM (test compound 10 nM) stood at 11%. The inhibition at 0.1 µM (test compound 100 nM) was found to be 81%.
For `CCNS(=O)(=O)C1CC2(CC(N(C)c3ncnc4[nH]ccc34)C2)C1` (stereo not drawn) [Compound 2, N-ethyl-6-[methyl(7H-pyrrolo[2,3-d]pyrimidin-4-yl)amino]spiro[3.3]heptane-2-sulfonamide] the same measures were 98%, 52% and 90%.
Taken in the same sequence, the figures for `CN(c1ncnc2[nH]ccc12)C1CC2(C1)CC(S(N)(=O)=O)C2` (stereo not drawn) [Compound 28, 6-[methyl(7H-pyrrolo[2,3-d]pyrimidin-4-yl)amino]spiro[3.3]heptane-2-sulfonamide] were 94%, 13% and 60%.
Taken in the same sequence, the figures for `CN(c1ncnc2[nH]ccc12)C1CC2(CC(NS(C)(=O)=O)C2)C1` (stereo not drawn) [Compound 15, N-[2-[methyl(7H-pyrrolo[2,3-d]pyrimidin-4-yl)amino]spiro[3.3]heptan-6-yl]methanesulfonamide] were 95%, 31% and 78%.
Regarding `CC(C)NS(=O)(=O)C1CC2(CC(N(C)c3ncnc4[nH]ccc34)C2)C1` (stereo not drawn) [Compound 4, N-isopropyl-6-[methyl(7H-pyrrolo[2,3-d]pyrimidin-4-yl)amino]spiro[3.3]heptane-2-sulfonamide], the “% Inhibition 1000 nm” value is 95%. For the same compound, the inhibition at 0.01 µM (test compound 10 nM) was determined as 23%. For the same compound, the inhibition at 0.1 µM (test compound 100 nM) is 75%.
With `CNS(=O)(=O)C1CC2(CC(N(C)c3ncnc4[nH]cnc34)C2)C1` (stereo not drawn) [Compound 24, N-methyl-6-[methyl(9H-purin-6-yl)amino]spiro[3.3]heptane-2-sulfonamide], the “% Inhibition 1000 nm” value is 72%. Moreover, the inhibition at 0.01 µM (test compound 10 nM) came out at 4%. The inhibition at 0.1 µM (test compound 100 nM) is 21%.
Regarding `CN(c1ncnc2[nH]ccc12)C1CC2(CC(NS(=O)(=O)C3CCCC3)C2)C1` (stereo not drawn) [Compound 20, N-[2-[methyl(7H-pyrrolo[2,3-d]pyrimidin-4-yl)amino]spiro[3.3]heptan-6-yl]cyclopentanesulfonamide], the “% Inhibition 1000 nm” value is reported as 97%. The inhibition at 0.01 µM (test compound 10 nM) stood at 33%. For the same compound, the inhibition at 0.1 µM (test compound 100 nM) is 82%.
For `CN(c1ncnc2[nH]ccc12)C1CC2(C1)CC(S(=O)(=O)NC(C)(C)C)C2` (stereo not drawn) [Compound 8, N-tert-butyl-6-[methyl(7H-pyrrolo[2,3-d]pyrimidin-4-yl)amino]spiro[3.3]heptane-2-sulfonamide] the same measures were 94%, 37% and 82%.
Turning to `CCS(=O)(=O)NC1CC2(C1)CC(N(C)c1ncnc3[nH]ccc13)C2` (stereo not drawn) [Compound 16, N-[2-[methyl(7H-pyrrolo[2,3-d]pyrimidin-4-yl)amino]spiro[3.3]heptan-6-yl]ethanesulfonamide], the “% Inhibition 1000 nm” value was found to be 96%. For the same compound, where the note is “test compound 10 nM”, the inhibition at 0.01 µM was 28%. For the same compound, the inhibition at 0.1 µM (test compound 100 nM) was determined as 76%.
Taken in the same sequence, the figures for `CN(c1ncnc2[nH]ccc12)C1CC2(C1)CC(S(=O)(=O)N(C)C)C2` (stereo not drawn) [Compound 29, N,N-dimethyl-6-[methyl(7H-pyrrolo[2,3-d]pyrimidin-4-yl)amino]spiro[3.3]heptane-2-sulfonamide] were 98%, 55% and 92%.
As to `CN(c1ncnc2[nH]ccc12)C1CC2(CC(NS(=O)(=O)c3ccccc3Cl)C2)C1` (stereo not drawn) [Compound 12, 2-chloro-N-[2-[methyl(7H-pyrrolo[2,3-d]pyrimidin-4-yl)amino]spiro[3.3]heptan-6-yl]benzenesulfonamide], the “% Inhibition 1000 nm” value turned out to be 90%. Besides, the inhibition at 0.01 µM (test compound 10 nM) amounted to 15%. Further, where the note is “test compound 100 nM”, the inhibition at 0.1 µM turned out to be 60%.
As for `CNS(=O)(=O)C1CC2(CC(N(C)c3ncnc4[nH]ccc34)C2)C1` (single isomer, unassigned; enantiomer a) [Compound 26, (Enantiomer A)-N-methyl-6-[methyl(7H-pyrrolo[2,3-d]pyrimidin-4-yl)amino]spiro[3.3]heptane-2-sulfonamide], the “% Inhibition 1000 nm” value is given as 98%. In addition, where the note is “test compound 10 nM, 0.01 µM”, the “% Inhibition 10 nM” value was found to be 77%. Also, the “% Inhibition 100 nM” value (test compound 100 nM, 0.1 µM) turned out to be 96%.
Regarding `CN(c1ncnc2[nH]ccc12)C1CC2(C1)CC(S(=O)(=O)N1CCCC1)C2` (stereo not drawn) [Compound 30, N-methyl-N-(2-pyrrolidin-1-ylsulfonylspiro[3.3]heptan-6-yl)-7H-pyrrolo[2,3-d]pyrimidin-4-amine], the “% Inhibition 1000 nm” value is 99%. Also, the inhibition at 0.01 µM (test compound 10 nM) turned out to be 43%. Also, the inhibition at 0.1 µM (test compound 100 nM) is 89%.
For `CCCS(=O)(=O)NC1CC2(C1)CC(N(C)c1ncnc3[nH]ccc13)C2` (stereo not drawn) [Compound 17, N-[2-[methyl(7H-pyrrolo[2,3-d]pyrimidin-4-yl)amino]spiro[3.3]heptan-6-yl]propane-1-sulfonamide] the same measures were 95%, 38% and 83%.
As for `CNS(=O)(=O)C1CC2(CC(N(C)c3ncnc4[nH]ccc34)C2)C1` (stereo not drawn) [Compound 1, N-methyl-6-[methyl(7H-pyrrolo[2,3-d]pyrimidin-4-yl)amino]spiro[3.3]heptane-2-sulfonamide], the “% Inhibition 1000 nm” value was determined as 96%. Besides, the inhibition at 0.01 µM (test compound 10 nM) was found to be 71%. The inhibition at 0.1 µM (test compound 100 nM) was determined as 92%.
For `CCS(=O)(=O)NCC1CC2(C1)CC(N(C)c1ncnc3[nH]ccc13)C2` (stereo not drawn) [Compound 23, N-((6-(methyl(7H-pyrrolo[2,3-d]pyrimidin-4-yl)amino)spiro[3.3]heptan-2-yl)methyl)ethanesulfonamide] the same measures were 97%, 66% and 94%.
For `CNS(=O)(=O)C1CC2(CC(N(C)c3ncnc4[nH]ncc34)C2)C1` (stereo not drawn) [Compound 25, N-methyl-6-[methyl(1H-pyrazolo[3,4-d]pyrimidin-4-yl)amino]spiro[3.3]heptane-2-sulfonamide] the same measures were 19%, 2% and 4%.
As for `CN(c1ncnc2[nH]ccc12)C1CC2(C1)CC(S(=O)(=O)NC1CCC1)C2` (stereo not drawn) [Compound 9, N-cyclobutyl-6-[methyl(7H-pyrrolo[2,3-d]pyrimidin-4-yl)amino]spiro[3.3]heptane-2-sulfonamide], the “% Inhibition 1000 nm” value came to 99%. The inhibition at 0.01 µM (test compound 10 nM) came to 64%. Also, the inhibition at 0.1 µM (test compound 100 nM) came out at 93%.
Taken in the same sequence, the figures for `CN(c1ncnc2[nH]ccc12)C1CC2(C1)CC(S(=O)(=O)NCC(F)(F)F)C2` (stereo not drawn) [Compound 6, 6-[methyl(7H-pyrrolo[2,3-d]pyrimidin-4-yl)amino]-N-(2,2,2-trifluoroethyl)spiro[3.3]heptane-2-sulfonamide] were 96%, 63% and 93%.
`CN(c1ncnc2[nH]ccc12)C1CC2(C1)CC(S(=O)(=O)NC1CC1)C2` (stereo not drawn) [Compound 5, N-cyclopropyl-6-[methyl(7H-pyrrolo[2,3-d]pyrimidin-4-yl)amino]spiro[3.3]heptane-2-sulfonamide]: the “% Inhibition 1000 nm” value came to 99%. The inhibition at 0.01 µM (test compound 10 nM) came to 61%. Moreover, the inhibition at 0.1 µM (test compound 100 nM) was 94%.
For the compound `CC(C)S(=O)(=O)NC1CC2(C1)CC(N(C)c1ncnc3[nH]ccc13)C2` (stereo not drawn) [Compound 18, N-[2-[methyl(7H-pyrrolo[2,3-d]pyrimidin-4-yl)amino]spiro[3.3]heptan-6-yl]propane-2-sulfonamide], the “% Inhibition 1000 nm” value turned out to be 94%. Also, the inhibition at 0.01 µM (test compound 10 nM) is 23%. For the same compound, the inhibition at 0.1 µM (test compound 100 nM) is 71%.

The values above are taken from patent US10744136B2, “Sulfonamide derivatives as JAK inhibitors” (Avista Pharma Solutions, Inc., priority 2018, dated 2020).
